Source: patent US8895717B2, “Delivery of siRNA by neutral lipid compositions” (The Board of Regents of the University of Texas System, priority 2005, dated 2014)
d = 2'-deoxy (DNA); r = 2'-OH (RNA)

Experiments:
FAK = assay: In vivo down regulation of FAK by siRNA in DOPC (Western blot, IHC); design: species or system human; details: for FAK expression at the conclusion of the therapy studies: HeyA8, IHC
Protocol: (§1) siRNA for in vivo delivery was incorporated into the phospholipid 1,2-dioleoyl-sn-glycero-3-phosphatidylcholine (DOPC). DOPC and siRNA were mixed in the presence of excess tertiary-butanol at a ratio of […], as previously described (Landen et al., 2005). Tween-20 was added to the mixture at a ratio of 1:19. The mixture was vortexed, frozen in an acetone/dry ice bath, and lyophilized. Before in vivo administration, this preparation was hydrated with normal (0.9%) saline at a concentration of 15 μg/ml to achieve the desired dose of 150-200 μl per injection. To estimate the quantity of siRNA not taken up by liposomes free siRNA was separated from liposomes by using filter units with a 30,000 nominal molecular weight limit (Millipore Corp, Billerica, Mass.). The liposomal suspension was added to the filters and centrifuged at 5,000 g for 40 min at room temperature. Fractions were collected, the material trapped in the filter was reconstituted with 0.9% saline, and the amount of siRNA in the collected fraction and eluent were measured by spectrophotometry.
Cells were lysed in modified RIPA buffer (50 mM Tris, 150 mM NaCl, 1% triton, 0.5% deoxycholate plus 25 µg/ml leupeptin, 10 µg/ml aprotinin, 2 mM EDTA, and 1 mM sodium orthovanadate (Sigma Chemical Co, St. Louis, Mo.) as previously described (Sood et al., 2004; Sood et al., 2002). A sample was removed from culture dishes by cell scraping and centrifuged at 12,500 rpm for 30 min. The […] protein concentration of the supernatant was determined using a bicinchoninic acid protein assay reagent kit (Pierce, Rockford, Ill.), and whole cell lysates were analyzed by 7.5% SDS-PAGE. Samples were then transferred to nitrocellulose membrane by semi-dry transfer (BioRad Laboratories, Hercules, Calif.). Membranes were blocked with 5% nonfat milk, and incubated with 0.25 μg/mL anti-FAK antibody (Biosource, International Camarillo, Calif.) for 1 h at room temperature. Antibody was detected with 0.167 μg/mL HRP-conjugated anti-mouse secondary antibody (The Jackson Laboratory, Bar Harbor, Me.) and developed with an enhanced chemiluminescence detection kit (Pierce). Equal loading was confirmed by detection of β-actin (0.1 μg/ml, anti-β-actin antibody, Sigma Chemical). Densitometric analysis was performed using the Scion Imaging software (Scion Corporation, Frederick, Md.).
To evaluate the therapeutic effect of the combination of FAK siRNA and docetaxel in a mouse model, preliminary dose-response studies were performed experiments for FAK siRNA. HeyA8 cells were implanted i.p. and treatment was initiated 21 days following tumor injection when i.p. tumors could be assessed by palpation. Mice were randomly distributed into three groups (n=10 per group) and were treated with a single dose of PBS, control siRNA or FAK siRNA at 150 μg/kg in 200 μl volume. Following treatment, 3 mice were sacrificed at definite time-points (24 h, 48 h, 96 h and 6 days). Fluorescent IHC analysis was performed on any excised peritoneal cavity tumors as described below.
The inventors investigated the inhibition of FAK expression in combination with docetaxel and the in vivo therapeutic potential. Prior to initiating therapy studies, the ability of FAK-targeted siRNA incorporated in DOPC to down-regulate FAK in vivo was assessed. Nude mice bearing intraperitoneal HeyA8 tumors were injected with a single dose of FAK siRNA i.p., and tumors were harvested 1, 2, 4, and 6 days after injection for Western blot analysis and immunohistochemistry for assessing level of FAK expression. […] FAK expression was not affected by control siRNA. Twice weekly administration of siRNA (150 μg/kg) was selected as an exemplary dosing schedule for subsequent therapy experiments.

HeyA8-MDR cells = assay: In vivo therapy with DOPC-FAK siRNA, HeyA8-MDR model; design: species or system nude mice; details: for Incidence (%) / No. Nodules: siRNA in DOPC twice weekly, docetaxel 50 μg weekly
Protocol: as §1
To produce tumors, SKOV3ip1, Hey A8-MDR cells (1×10^6 cells/0.2 ml of HBSS) and Hey A8 cells (2.5×10^5 cells/0.2 ml of HBSS) were injected interperitoneally (i.p.) into the mice. For in vivo injections, cells were trypsinized and centrifuged at 1000 rpm for 7 minutes at 4° C., washed twice with PBS and reconstituted in serum-free Hank's balanced salt solution (HBSS, Life Technologies, Carlsbad, Calif.). Only single-cell suspensions with >95% viability, as determined by trypan blue exclusion, were used for the in vivo injections. Mice (n=10 per group) were monitored for adverse effects of therapy and were sacrificed on day 35 (SKOV3ip1) or day 28 (HeyA8 or HeyA8-MDR) or when any of the mice began to appear moribund. Mouse weight, tumor weight, and tumor distribution were recorded. Tissue specimens were snap frozen for lysate preparation, fixed in formalin for paraffin embedding or frozen on OCT compound (Miles, Inc., Elkhart, Ind.) for frozen slide preparation.
Based on the results of preliminary dose-response studies, a series of three separate therapy studies were initiated using the optimal FAK siRNA dosage. Tumor cells were injected i.p. and 7 days later, the mice were randomly assigned to five treatment groups: empty liposome twice weekly, non-specific control […] siRNA (3 μg) twice weekly, control FAK siRNA (3 μg) twice weekly in combination with 50 μg docetaxel weekly, FAK siRNA twice weekly and FAK siRNA (3 μg) twice weekly in addition to 50 μg docetaxel weekly.
Chemotherapy-resistance is a common clinical problem in the management of ovarian carcinoma. Despite high response rates with initial therapy, most patients develop recurrent tumors that are resistant to taxane and platinum chemotherapy (McGuire et al., 1996). […] Consequently FAK downregulation and its effects on sensitization of resistant tumors to chemotherapy, using the HeyA8-MDR cell line (FIG. 13C) was assessed. Therapy was started 7 days after injection of tumor cells into nude mice according to the 5 groups outlined above.

FAK siRNA: sense r(CCACCUGGGCCAGUAUUAU)d(TT), antisense r(AUAAUACUGGCCCAGGUGG)d(TT); for in vivo delivery incorporated into DOPC (sense CCACCUGGGCCAGUAUUAUTT; antisense AUAAUACUGGCCCAGGUGGTT; sugars from the 5' end r19 d2, backbone not given here)
FAK expression at the conclusion of the therapy studies (FAK): sustained suppression of FAK expression | reduction in FAK levels (FAK; HeyA8 tumors, within 48 hours of a single dose in DOPC, Western blot): > 80% | persistence of FAK reduction (FAK; single dose in DOPC): at least 4 days | recovery of FAK expression (FAK; single treatment in DOPC): began to return to basal levels by 6 days | reduction in tumor growth compared to control (HeyA8-MDR cells): about 44% | Incidence (%) (HeyA8-MDR cells): 70% | No. Nodules (HeyA8-MDR cells): 2.1

control siRNA: sense r(UUUUCCGAACGUGUCACGU)dTT, antisense r(ACGUGACACGUUCGGAGAA)dTT, no homology with human mRNA; in vivo in DOPC (sense UUUUCCGAACGUGUCACGUTT; antisense ACGUGACACGUUCGGAGAATT; sugars from the 5' end r19 d2, backbone not given here)
FAK expression at the conclusion of the therapy studies (FAK): not suppressed | FAK expression (FAK; single dose): not affected | Incidence (%) (HeyA8-MDR cells): 90% | No. Nodules (HeyA8-MDR cells): 4.4
